{"source": "paper PMC11763264", "about": "“Antibacterial and Antifungal Activities of Linear and Cyclic Peptides Containing Arginine, Tryptophan, and Diphenylalanine” (Antibiotics, 2025)", "key": {"[1]": {"system": "E. faecium (ATCC 700221)", "experiment": "microbe, parasite or virus in culture", "assay_type": "cell-based, Enterococcus faecium", "conditions": "ATCC 700221, 24 h", "protocol": "(§1) The antibacterial activity of all ten synthesized linear and cyclic peptides was evaluated against MRSA (ATCC BAA-1556), S. aureus (ATCC 29213), E. faecium (ATCC 700221), S. pneumoniae (ATCC 51938), E. faecalis (ATCC 29212), B. subtilis (ATCC-6633), K. pneumoniae (ATCC BAA-1705), P. aeruginosa (ATCC 27883), and E. coli (ATCC 25922). Meropenem and daptomycin were used as positive controls for this study. Certain peptides are marked as “NT” (not tested) against specific bacterial strains based on initial screening data. […] The MIC was determined by micro-broth dilution protocol, where the minimal concentrations were determined to be in wells with no visible bacterial growth.\n(§2) All bacterial experiments were carried out in a laminar flow hood (Labconco, Kansas City, MO, USA). The bacterial strains were cultured following the guidelines set by the Clinical Laboratory Standards Institute (CLSI). Antibacterial assays were performed using a standard microtiter dilution method as described in previous studies. The minimum inhibitory concentration (MIC) refers to the lowest peptide concentration that inhibits bacterial growth in wells with no visible bacterial growth. MIC was determined by micro-broth dilution. Bacteria were cultured overnight in 6 mL of Luria Broth (LB). A stock solution of the peptide was prepared in water and DMSO, and a test compound solution with a concentration of 256 µg/mL was made in LB. Meropenem, with a solubility of 8 mg/mL, was prepared as a stock solution at 4 mg/500 µL. An aliquot of the overnight bacteria culture was diluted in normal saline (NS, 1 mL) until achieving a 0.5 McFarland turbidity (1.5 × 10^8 bacterial cell CFU/mL). A 0.5 McFarland compared solution (60 µL) was added to Mueller Hinton Broth (MH) 8940 µL to generate a 1/150 dilution. A 200 µL test compound solution was added to the first well of a 96-well plate, and the remaining wells (2–12) were filled with 100 µL of MH media using a multi-channel pipette from a sterile reservoir. A concentration of […] of the tested peptides was prepared from a stock solution of the samples for testing in Muller−Hinton broth MH media. Peptides stock solution was dissolved in 5% DMSO in water, and the final concentration of DMSO in the first well of assay plate was 2.5% DMSO/H2O and diluted across the assay plate.\n(§3) A 100 µL sample from well 1 was pipetted into well 2, and the solution was mixed thoroughly by pipetting up and down. Next, 100 µL was transferred from well 2 to well 3, followed by thorough mixing. This 2-fold serial dilution process continued through well 11, with no additions made to well 12. The final 100 µL from well 11 was discarded. After completing the serial dilution, each well (1–12) contained 100 µL of solution. The bacterial culture in MH media was vortexed and transferred to a sterile reservoir, from which 100 µL was added to each well using a 12-channel pipette. (Note: The dilutions were further diluted upon adding the bacterial solution; for example, the concentration in well 1 started at […] after the addition of the bacterial culture.) The plates were incubated overnight at 37 °C for 24 h. All experiments were performed in triplicate and repeated twice, with controls consisting of bacteria in MH media and positive controls of daptomycin or meropenem."}, "[2]": {"system": "S. pneumoniae (ATCC 51938)", "experiment": "microbe, parasite or virus in culture", "assay_type": "cell-based, Streptococcus pneumoniae", "conditions": "ATCC 51938, 24 h", "protocol": "as §1, §2, §3"}, "[3]": {"system": "B. subtilis (ATCC-6633)", "experiment": "microbe, parasite or virus in culture", "assay_type": "cell-based, Bacillus subtilis", "conditions": "ATCC-6633, 24 h", "protocol": "as §1, §2, §3"}, "[4]": {"system": "P. aeruginosa (ATCC 27883)", "experiment": "microbe, parasite or virus in culture", "assay_type": "cell-based, Pseudomonas aeruginosa", "conditions": "ATCC 27883, 24 h", "protocol": "as §1, §2, §3"}, "[5]": {"system": "E. coli (ATCC 25922)", "experiment": "microbe, parasite or virus in culture", "assay_type": "cell-based, Escherichia coli", "conditions": "ATCC 25922, 24 h", "protocol": "as §1, §2, §3"}, "[6]": {"system": "C. parapsilosis (ATCC 22019)", "experiment": "microbe, parasite or virus in culture", "assay_type": "cell-based, Candida parapsilosis", "conditions": "ATCC 22019, 24 h", "protocol": "The antifungal activity of all ten synthesized linear and cyclic peptides was evaluated against C. albicans (ATCC 60193), C. parapsilosis (ATCC 22019), and A. fumigatus (AF-293). Fluconazole and amphotericin B were used as positive controls for this study. The MIC was determined at concentrations in wells with no visible fungal growth.\nIn this study, C. albicans and C. parapsilosis were cultured on Yeast Peptone Dextrose (YPD) agar containing 1% w/v yeast extract, 2% w/v peptone, 2% w/v D-glucose, and 1.5% agar. A single colony from the agar was selected and cultured in Tryptone soy broth supplemented with 0.1% D-glucose, then incubated for 24 h at 37 °C. The cells were washed twice with PBS by centrifugation at 2000 RPM for 5 min. The pellet was resuspended in 5 mL of PBS, diluted in RPMI 1640 with L-glutamine, supplemented with 2% D-glucose, and the pH adjusted using HEPES buffer. The suspension was then incubated for 50 min at 35 °C to achieve a final cell concentration of 10^6 cells/mL.\nPeptide concentrations of 50, 25, 12.5, 6.25, and 3.1 μg/mL were tested in triplicate and repeated twice. Each well of a 96-well plate was inoculated with the prepared inoculum suspension, which was diluted with RPMI media to a final volume of 200 μL per well. The control well received the same inoculum without any compound. The plates were incubated for 24 h at 37 °C. Fungal and microbial growth were visually observed in the control wells, and the minimum inhibitory concentration (MIC) was determined as the lowest concentration at which no growth was detected in the wells. Amphotericin B was used as a standard antifungal drug."}, "[7]": {"system": "Gram-negative strains: K. pneumoniae, P. aeruginosa, and E. coli", "experiment": "MIC, micro-broth dilution, span over Gram-negative strains", "assay_type": "cell-based", "protocol": "as §1\n(§4) All bacterial experiments were carried out in a laminar flow hood (Labconco, Kansas City, MO, USA). The bacterial strains were cultured following the guidelines set by the Clinical Laboratory Standards Institute (CLSI). Antibacterial assays were performed using a standard microtiter dilution method as described in previous studies. The minimum inhibitory concentration (MIC) refers to the lowest peptide concentration that inhibits bacterial growth in wells with no visible bacterial growth. MIC was determined by micro-broth dilution. Bacteria were cultured overnight in 6 mL of Luria Broth (LB). […]"}, "[8]": {"system": "Gram-positive and Gram-negative bacteria strains", "assay_type": "cell-based", "conditions": "span over all bacterial strains tested; micro-broth dilution", "protocol": "as §1, §4"}, "[9]": {"system": "Gram-positive bacteria strains: MRSA, S. aureus, E. faecium, E. faecalis, S. pneumoniae, and B. subtilis", "assay_type": "cell-based", "conditions": "span over MRSA, micro-broth dilution", "protocol": "as §1, §4"}, "[10]": {"system": "LLC-PK1 cells", "conditions": "cited from earlier work", "excerpt": "(§5) We have previously reported in vitro cytotoxicity of the synthesized peptides in a range of mammalian cell lines, including human ovarian adenocarcinoma cells (SK-OV-3), human peripheral blood lymphoblast cells (CCRF-CEM), healthy human embryonic kidney cells (HEK-293), human mammary adenocarcinoma cells (MDA-MB-468), normal pig kidney epithelial cells (LLC-PK1), and human uterine sarcoma fibroblast cells (MES-SA)."}, "[11]": {"system": "MDA-MB-468 cells", "conditions": "cited from earlier work", "excerpt": "as §5"}, "[12]": {"system": "MES-SA cells", "conditions": "cited from earlier work", "excerpt": "as §5"}}, "note": "“And” between values parts separate entries of the source, which are not always exact repeats. Equal entries are not always repeated. Non-standard residues stand in square brackets, D forms with d. Residues, ends and D or L forms follow the SMILES beside them. Dip = N[C@H](C(=O)O)C(c1ccccc1)c1ccccc1", "data": [{"smiles": "N=C(N)NCCC[C@@H]1NC(=O)[C@H](C(c2ccccc2)c2ccccc2)NC(=O)[C@H](CCCNC(=N)N)NC(=O)[C@H](C(c2ccccc2)c2ccccc2)NC(=O)[C@H](CCCNC(=N)N)NC(=O)[C@H](C(c2ccccc2)c2ccccc2)NC(=O)[C@H](CCCNC(=N)N)NC(=O)[C@H](C(c2ccccc2)c2ccccc2)NC(=O)[C@H](CCCNC(=N)N)NC(=O)[C@H](C(c2ccccc2)c2ccccc2)NC1=O", "note": "[[DipR]5] (cyclo([Dip]R[Dip]R[Dip]R[Dip]R[Dip]R))", "values": [{"measurement": "MIC", "setting": "[1]", "result": 0.78, "unit": "µM"}, {"measurement": "MIC", "setting": "[2]", "result": 0.39, "unit": "µM"}, {"measurement": "MIC", "setting": "[3]", "result": 6.3, "unit": "µM"}, {"measurement": "MIC", "setting": "[4]", "result": 25, "unit": "µM"}, {"measurement": "MIC", "setting": "[5]", "result": 12.5, "unit": "µM"}, {"measurement": "MIC", "setting": "[6]", "result": 6.6, "unit": "µM"}, {"measurement": "MIC values against Gram-negative strains", "setting": "[7]", "result": "12.5–25 µM and 23.8–47.6 µg/mL"}, {"measurement": "MIC values against Gram-positive and Gram-negative bacteria strains", "setting": "[8]", "result": "0.39 to 25", "unit": "µM"}, {"measurement": "MIC values against Gram-positive bacteria strains", "setting": "[9]", "result": "0.39 to 6.3", "unit": "µM"}, {"measurement": "cytotoxicity against LLC-PK1 cells", "setting": "[10]", "result": "reduced cytotoxicity"}, {"measurement": "cytotoxicity against MDA-MB-468 cells", "setting": "[11]", "result": "reduced cytotoxicity"}, {"measurement": "cytotoxicity against MES-SA cells", "setting": "[12]", "result": "moderate effects"}]}]}
